According to US20190064149A1, “CANCER EXAMINATION METHOD AND EXAMINATION KIT” (THE UNIVERSITY OF TOKYO, priority 2013, published 2019):

Biological target: T1, MT1-MMP (Homo sapiens, UniProt P50281)
T1 construct: expressed in transfected cells; host or cells: HT1080 (human fibrosarcoma) stably expressing c-myc-EphA2, transiently transfected with pSG-MT1-MMP
Experiment: EphA2 processing by MT1-MMP in HT1080 cells forcibly expressing MT1-MMP and Myc-labeled EphA2, western blotting
Assay type: cell-based
Method: HT1080 cells expressing c-myc-EphA2 stably were prepared by a ViraPower™ lentiviral expression system using a plenti-c-myc-EphA2 vector in HT1080 and expression vectors (pSG-MT1-6-MMPs) of MT1-6-MMPs were transiently introduced into the resulting cells. EphA2 and MT1-MMP were detected by western blotting using an anti-Myc polyclonal antibody and an anti-MT1-MMP monoclonal antibody. Respective expression vectors of the MT-MMPs were introduced using FuGene6 (Rhoche). Expression of c-myc-EphA2 and wild type MT1-MMP was confirmed by solubilizing each of the cells (10 cm) by RIPA and then performing immunoprecipitation (IP) of EphA2 and stud thereof by an anti C-myc antibody. In order to inhibit the protease activity of MT1-MMP, BB94 or TIMP-2 was added as an MMP inhibitor to a culture solution.

With CNC(=O)[C@H](Cc1ccccc1)NC(=O)[C@H](CC(C)C)[C@H](CSc1cccs1)C(=O)NO [BB94] the “EphA2 species purified by immunoprecipitation with Myc antibody” value (HT1080 cells co-expressing Myc-EphA2 and wild type MT1-MMP) was “only a full length type EphA2” and the “production of 65 and 60 kDa EphA2 processed fragments” value (HT1080 cells forcibly expressing MT1-MMP, inhibitor added to culture solution) was “suppressed”.
